Reference: patent US10758534B2 (Vertex Pharmaceuticals Incorporated, priority 2014, dated 2020)

Molecular target: T1, F508del (Homo sapiens, UniProt P13569, DEL508-508)
T1 construct: expressed in transfected cells
Assay: Protocol 2: FRET membrane potential optical assay (VIPR), identification of correction compounds
Format: cell-based
Conditions: Table 3; compounds of Table 1 as modulators of CFTR activity; protocol not stated
Method in brief: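 NIH3T3 mouse fibroblasts stably expressing F508del were treated with test compound for 16 hrs at 37° C. in serum-free medium; 27° C. incubation served as positive control. F508del was activated with 10 μM forskolin plus 20 μM genistein in Cl^−-free medium, and Cl^− efflux-driven depolarization was read by DiSBAC2(3)/CC2-DMPE FRET.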

T1 sequence (P13569 with tags, fused parts or gaps DEL508-508): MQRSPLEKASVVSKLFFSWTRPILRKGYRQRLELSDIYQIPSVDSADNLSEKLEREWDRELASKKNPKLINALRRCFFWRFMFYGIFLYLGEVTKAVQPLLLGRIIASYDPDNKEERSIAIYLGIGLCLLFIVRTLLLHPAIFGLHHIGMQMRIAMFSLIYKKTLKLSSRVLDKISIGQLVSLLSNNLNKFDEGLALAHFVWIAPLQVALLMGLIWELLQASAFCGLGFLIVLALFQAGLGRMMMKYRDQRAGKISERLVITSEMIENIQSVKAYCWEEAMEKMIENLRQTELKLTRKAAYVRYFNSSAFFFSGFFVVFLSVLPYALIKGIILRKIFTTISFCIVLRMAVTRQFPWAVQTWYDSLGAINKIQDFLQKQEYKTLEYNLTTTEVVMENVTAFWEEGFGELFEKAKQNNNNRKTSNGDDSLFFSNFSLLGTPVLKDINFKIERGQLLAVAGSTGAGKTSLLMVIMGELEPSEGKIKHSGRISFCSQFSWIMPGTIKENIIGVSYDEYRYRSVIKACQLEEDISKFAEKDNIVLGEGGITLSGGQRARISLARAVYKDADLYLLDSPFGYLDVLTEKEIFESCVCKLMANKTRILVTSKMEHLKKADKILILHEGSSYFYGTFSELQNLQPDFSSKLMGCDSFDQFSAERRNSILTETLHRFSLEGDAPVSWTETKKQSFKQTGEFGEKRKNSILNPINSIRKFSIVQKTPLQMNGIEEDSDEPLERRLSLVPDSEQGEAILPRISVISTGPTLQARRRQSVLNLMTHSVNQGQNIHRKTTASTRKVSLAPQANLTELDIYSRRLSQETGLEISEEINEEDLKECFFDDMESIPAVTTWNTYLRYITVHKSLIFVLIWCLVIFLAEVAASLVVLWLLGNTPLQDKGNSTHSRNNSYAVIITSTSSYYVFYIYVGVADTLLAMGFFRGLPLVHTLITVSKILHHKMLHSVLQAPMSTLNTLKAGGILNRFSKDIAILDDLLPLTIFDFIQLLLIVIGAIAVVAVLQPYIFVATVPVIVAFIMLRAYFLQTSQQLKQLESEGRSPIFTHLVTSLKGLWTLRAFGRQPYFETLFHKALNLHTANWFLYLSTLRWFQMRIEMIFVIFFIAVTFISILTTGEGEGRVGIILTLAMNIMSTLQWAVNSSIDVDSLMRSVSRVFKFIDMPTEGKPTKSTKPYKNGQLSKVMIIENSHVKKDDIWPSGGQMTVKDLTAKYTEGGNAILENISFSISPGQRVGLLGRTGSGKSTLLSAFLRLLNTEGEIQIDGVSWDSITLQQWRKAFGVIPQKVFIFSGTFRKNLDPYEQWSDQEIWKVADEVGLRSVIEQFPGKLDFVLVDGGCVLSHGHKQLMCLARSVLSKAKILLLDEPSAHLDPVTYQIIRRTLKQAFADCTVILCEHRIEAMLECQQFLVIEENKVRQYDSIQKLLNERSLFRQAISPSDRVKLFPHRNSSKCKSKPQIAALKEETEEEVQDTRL

Compound | EC30
Cc1cc(C)c(Oc2nc(-c3ccc(Cl)c(OC(C)C)c3)ccc2C(=O)NS(=O)(=O)c2cccc(N)n2)c(C)c1 [Compound 281, N-[(6-amino-2-pyridyl)sulfonyl]-6-(4-chloro-3-isopropoxy-phenyl)-2-(2,4,6-trimethylphenoxy)pyridine-3-carboxamide] | +++ (“+++” means <3 uM)
Cc1cccc(-c2nc(C(C)(C)C)ccc2C(=O)NS(=O)(=O)c2cccc(N)c2)c1 [Compound 282, N-(3-aminophenyl)sulfonyl-6-tert-butyl-2-(m-tolyl)pyridine-3-carboxamide] | ++ (“++” means between 3 uM and 10 uM)
Cc1cc(C)c(Oc2nc(C(C)(C)C)ccc2C(=O)NS(=O)(=O)c2ccnc(N)c2)c(C)c1 [Compound 283, N-[(2-amino-4-pyridyl)sulfonyl]-6-tert-butyl-2-(2,4,6-trimethylphenoxy)pyridine-3-carboxamide] | +++ (“+++” means <3 uM)
Cc1cc(C)c(Oc2nc(-c3ccoc3)ccc2C(=O)NS(=O)(=O)c2cccc(N)n2)c(C)c1 [Compound 284, N-[(6-amino-2-pyridyl)sulfonyl]-6-(3-furyl)-2-(2,4,6-trimethylphenoxy)pyridine-3-carboxamide] | +++ (“+++” means <3 uM)
Cc1cc(C)c(Oc2nc3c(cc2C(=O)NS(=O)(=O)c2cccc(N)n2)CCCC3)c(C)c1 [Compound 285, N-[(6-amino-2-pyridyl)sulfonyl]-2-(2,4,6-trimethylphenoxy)-5,6,7,8-tetrahydroquinoline-3-carboxamide] | +++ (“+++” means <3 uM)
Cc1cccc(C)c1Oc1nc(C(C)(C)C)ccc1C(=O)NS(=O)(=O)c1cccc(N)c1 [Compound 286, N-(3-aminophenyl)sulfonyl-6-tert-butyl-2-(2,6-dimethylphenoxy)pyridine-3-carboxamide] | +++ (“+++” means <3 uM)
CC(C1CCCCC1)n1nc(C(C)(C)C)cc1C(=O)NS(=O)(=O)c1cccc(N)c1 (stereo not drawn) [Compound 287, N-(3-aminophenyl)sulfonyl-5-tert-butyl-2-(1-cyclohexylethyl)pyrazole-3-carboxamide] | +++ (“+++” means <3 uM)
Cc1ccc(-c2nc(C(C)(C)C)ccc2C(=O)NS(=O)(=O)c2ccc(C#N)cc2)cc1 [Compound 288, 6-tert-butyl-N-(4-cyanophenyl)sulfonyl-2-(p-tolyl)pyridine-3-carboxamide] | +++ (“+++” means <3 uM)
CNc1cccc(S(=O)(=O)NC(=O)c2ccc(C(C)(C)C)nc2Oc2c(C)cc(C)cc2C)c1 [Compound 289, 6-tert-butyl-N-[3-(methylamino)phenyl]sulfonyl-2-(2,4,6-trimethylphenoxy)pyridine-3-carboxamide] | +++ (“+++” means <3 uM)
COc1cccc2c1cc(C(=O)NS(=O)(=O)c1ccccc1)n2Cc1c(C)cccc1C [Compound 290, N-(benzenesulfonyl)-1-[(2,6-dimethylphenyl)methyl]-4-methoxy-indole-2-carboxamide] | +++ (“+++” means <3 uM)
Cc1cc(C)c(Cn2c(C(=O)NS(=O)(=O)c3cccc(N)c3)cc3cc(C#N)ccc32)c(C)c1 [Compound 291, N-(3-aminophenyl)sulfonyl-5-cyano-1-[(2,4,6-trimethylphenyl)methyl]indole-2-carboxamide] | ++ (“++” means between 3 uM and 10 uM)
Cc1cc(C)c(Oc2nc(C(C)(C)C)ccc2C(=O)NS(=N)(=O)c2cccc(N)c2)c(C)c1 (stereo not drawn) [Compound 292, N-[(3-Aminophenyl)sulfonimidoyl]-6-tert-butyl-2-(2,4,6-trimethylphenoxy)pyridine-3-carboxamide] | +++ (“+++” means <3 uM)
Cc1cc(C)c(Cn2nc(-c3cccc(C)c3F)cc2C(=O)NS(=O)(=O)c2cccc(N)c2)c(C)c1 [Compound 293, N-(3-aminophenyl)sulfonyl-5-(2-fluoro-3-methyl-phenyl)-2-[(2,4,6-trimethylphenyl)methyl]pyrazole-3-carboxamide] | +++ (“+++” means <3 uM)
Cc1cc(C)c(Oc2nc(C(C)(C)C)ccc2C(=O)NS(=O)(=O)c2cccc(N)c2)c(C)c1 [Compound 294, N-(3-aminophenyl)sulfonyl-6-tert-butyl-2-(2,4,6-trimethylphenoxy)pyridine-3-carboxamide] | +++ (“+++” means <3 uM)
CC(C)(C)c1cc(C(=O)NS(=O)(=O)c2cccc(N)c2)n(Cc2cccc3ccccc23)n1 [Compound 295, N-(3-aminophenyl)sulfonyl-5-tert-butyl-2-(1-naphthylmethyl)pyrazole-3-carboxamide] | ++ (“++” means between 3 uM and 10 uM)
Cc1ccccc1Oc1nc(C(C)(C)C)ccc1C(=O)NS(=O)(=O)c1cccc(N)c1 [Compound 296, N-(3-aminophenyl)sulfonyl-6-tert-butyl-2-(2-methylphenoxy)pyridine-3-carboxamide] | +++ (“+++” means <3 uM)
Cc1ccc(-c2nc(C(C)(C)C)ccc2C(=O)NS(=O)(=O)c2ccc(N)cc2)cc1 [Compound 297, N-(4-aminophenyl)sulfonyl-6-tert-butyl-2-(p-tolyl)pyridine-3-carboxamide] | ++ (“++” means between 3 uM and 10 uM)

Compound | EC30
Cc1cc(C)c(Cn2c(C(=O)NS(=O)(=O)c3ccncc3)cc3c(F)cccc32)c(C)c1 [Compound 298, 4-fluoro-N-(4-pyridylsulfonyl)-1-[(2,4,6-trimethylphenyl)methyl]indole-2-carboxamide] | ++ (“++” means between 3 uM and 10 uM)
Cc1cc(C)c(CN2Cc3c(C(C)C)cccc3C2C(=O)NS(=O)(=O)c2cccc(N)c2)c(C)c1 (stereo not drawn) [Compound 299, N-(3-aminophenyl)sulfonyl-4-isopropyl-2-[(2,4,6-trimethylphenyl)methyl]isoindoline-1-carboxamide] | +++ (“+++” means <3 uM)
Cc1ccc(-c2ccc(C(=O)NS(=O)(=O)c3cc[nH]n3)c(Oc3c(C)cc(C)cc3C)n2)cc1 [Compound 300, 6-(p-tolyl)-N-(1H-pyrazol-3-ylsulfonyl)-2-(2,4,6-trimethylphenoxy)pyridine-3-carboxamide] | +++ (“+++” means <3 uM)
Cc1ccc(-c2nc(C(C)(C)C)ccc2C(=O)NS(=O)(=O)c2cccc(N)c2)cc1 [Compound 301, N-(3-aminophenyl)sulfonyl-6-tert-butyl-2-(p-tolyl)pyridine-3-carboxamide] | ++ (“++” means between 3 uM and 10 uM)
Cc1cccc(C)c1Cn1nc(-c2cccc(CN3CCOCC3)c2)cc1C(=O)NS(=O)(=O)c1ccccc1 [Compound 302, N-(benzenesulfonyl)-2-[(2,6-dimethylphenyl)methyl]-5-[3-(morpholinomethyl)phenyl]pyrazole-3-carboxamide] | ++ (“++” means between 3 uM and 10 uM)
CC(C)(C)c1cc(C(=O)NS(=O)(=O)c2cccc(N)c2)n(Cc2c(Cl)cc(Cl)cc2Cl)n1 [Compound 303, N-(3-aminophenyl)sulfonyl-5-tert-butyl-2-[(2,4,6-trichlorophenyl)methyl]pyrazole-3-carboxamide] | +++ (“+++” means <3 uM)
Cc1ccc(C(F)(F)F)c(Cn2nc(C(C)(C)C)cc2C(=O)NS(=O)(=O)c2ccccc2)c1 [Compound 304, N-(benzenesulfonyl)-5-tert-butyl-2-[[5-methyl-2-(trifluoromethyl)phenyl]methyl]pyrazole-3-carboxamide] | +++ (“+++” means <3 uM)
Cc1cc(C)c(Oc2nc(C(C)(C)C)ccc2C(=O)NS(=O)(=O)c2cccc(=O)[nH]2)c(C)c1 [Compound 305, 6-tert-butyl-N-[(6-oxo-1H-pyridin-2-yl)sulfonyl]-2-(2,4,6-trimethylphenoxy)pyridine-3-carboxamide] | +++ (“+++” means <3 uM)
Cc1cc(C)c(Cn2c(C(=O)NS(=O)(=O)c3cccc(N)c3)cc3c(C#N)cccc32)c(C)c1 [Compound 306, N-(3-aminophenyl)sulfonyl-4-cyano-1-[(2,4,6-trimethylphenyl)methyl]indole-2-carboxamide] | +++ (“+++” means <3 uM)
CC(C)COc1cc(F)cc(-c2ccc(C(=O)NS(=O)(=O)c3ccc[nH]c3=O)c(N3[C@H](C)CC[C@@H]3C)n2)c1 [Compound 307, 2-(2,5-dimethylpyrrolidin-1-yl)-6-(3-fluoro-5-isobutoxy-phenyl)-N-[(2-oxo-1H-pyridin-3-yl)sulfonyl]pyridine-3-carboxamide] | +++ (“+++” means <3 uM)
CC(C)(C)c1ccc(C(=O)NS(=O)(=O)c2cccc(N)c2)c(-c2ccc3c(c2)CCC3)n1 [Compound 308, N-(3-aminophenyl)sulfonyl-6-tert-butyl-2-indan-5-yl-pyridine-3-carboxamide] | +++ (“+++” means <3 uM)
Cc1cc(C)c(CN2CCc3ccccc3C2C(=O)NS(=O)(=O)c2cccc(N)c2)c(C)c1 (stereo not drawn) [Compound 309, N-(3-aminophenyl)sulfonyl-2-[(2,4,6-trimethylphenyl)methyl]-3,4-dihydro-1H-isoquinoline-1-carboxamide] | +++ (“+++” means <3 uM)
Cc1cc(C)c(CN2Cc3ccccc3[C@@H]2C(=O)NS(=O)(=O)c2cccc(N)c2)c(C)c1 [Compound 310, (1R)—N-(3-aminophenyl)sulfonyl-2-[(2,4,6-trimethylphenyl)methyl]isoindoline-1-carboxamide] | +++ (“+++” means <3 uM)
Cc1cc(C)c(Oc2nc(C(C)(C)C)ccc2C(=O)NS(=O)(=O)c2cccc(N(C)C)c2)c(C)c1 [Compound 311, 6-tert-butyl-N-[3-(dimethylamino)phenyl]sulfonyl-2-(2,4,6-trimethylphenoxy)pyridine-3-carboxamide] | +++ (“+++” means <3 uM)
Cc1ccc(S(=O)(=O)NC(=O)c2cc(C(C)(C)C)nn2Cc2c(C)cccc2C)cc1N [Compound 312, N-(3-amino-4-methyl-phenyl)sulfonyl-5-tert-butyl-2-[(2,6-dimethylphenyl)methyl]pyrazole-3-carboxamide] | +++ (“+++” means <3 uM)
Cc1cc(C)c(Cc2ccc(C(C)(C)C)nc2C(=O)NS(=O)(=O)c2cccc(N)c2)c(C)c1 [Compound 313, N-(3-aminophenyl)sulfonyl-6-tert-butyl-3-[(2,4,6-trimethylphenyl)methyl]pyridine-2-carboxamide] | +++ (“+++” means <3 uM)
